Measurements: ChEMBL document CHEMBL3286211, “Pyrimidinylpiperdinyloxypyridone Analogues as GPR119 Modulators” (ACS Med Chem Lett, 2014)
pEC50: −log10 of the molar value.

How the values were obtained:
[1] = Half life in human liver microsomes at 50 uM preincubated for 5 mins followed by NADPH addition by LC/MS-MS analysis; assay type: ADME
Mus musculus [2] = test: Antidiabetic activity in C57BL/6J mouse assessed as reduction in plasma glucose level at 0.03 mg/kg, po administered for 60 mins followed by glucose challenge measured for 30 to 120 mins by OGTT relative to vehicle-treated control; assay type: functional; design: scale not given: the % may be the effect or the level left
[3] = Agonist activity at human-mouse chimeric GPR119 expressed in tetracycline-induced Flp-In-T-Rex-HEK293 cells assessed as accumulation of cAMP after 50 mins by HTRF assay; assay type: cell-based; conditions: HEK293, 50 min
Mus musculus [4] = test: Antidiabetic activity in C57BL/6J mouse assessed as reduction in plasma glucose level at 0.1 mg/kg, po administered for 60 mins followed by glucose challenge measured for 30 to 120 mins by OGTT relative to vehicle-treated control; assay type: functional; design: scale not given: the % may be the effect or the level left

Compound | half-life at 50 µM [1] [h] | Activity (Mus musculus [2]) [%] | pEC50 [3] | Activity (Mus musculus [4]) [%]
Cc1nc(-n2cc(Cl)c(OC3CCN(c4ncc(Cl)cn4)CC3)cc2=O)ccc1N1CCC(O)C1=O (configuration not stated) | 1.57 | 36 | 8.70 | 
CCCc1cnc(N2CCC(Oc3cc(=O)n(-c4ccc(N5CCC(O)C5=O)c(C)n4)cc3Cl)CC2)nc1 (configuration not stated) | 2 | 19 | 8.40 | 
Cc1nc(-n2cc(Cl)c(OC3CCN(c4ncc(Cl)cn4)CC3)cc2=O)ccc1N1CC[C@H](O)C1=O | 1.3 | 26 | 8.40 | 
Cc1nc(-n2cc(Cl)c(OC3CCN(c4ncc(Cl)cn4)CC3)cc2=O)ccc1N1CC[C@@H](O)C1=O | 1.62 | 39 | 8.52 | 
CCCc1cnc(N2CCC(Oc3ccn(-c4ccc(N5CCC(O)C5=O)c(C)n4)c(=O)c3)CC2)nc1 (configuration not stated) | 1.27 |  | 7.80 | 21
Cc1nc(-n2ccc(OC3CCN(c4ncc(Cl)cn4)CC3)cc2=O)ccc1N1CCC(O)C1=O (configuration not stated) | 1.68 |  | 8.00 | 
